US11672798B2, “Ciprofloxacin ophthalmic topical composition for treating ocular disease” (LABORATORIOS SALVAT, S.A., priority 2021, dated 2023)

Columns and labels:
[1] = topical ocular administration, background statement; cited from earlier work
[2] = tested on: SIRC (Statens Serum Institut Rabbit Cornea, ATCC CCL-60) cells
Experimental: Permeability assays were performed in triplicate and repeated at least in three independent assays on different days. For this purpose, SIRC (Statens Serum Institut Rabbit Cornea, ATCC® CCL-60™) cells were seeded in sterile 6-well microfilter plates and maintained in culture until confluence. SIRC cells were cultured in Eagle's Minimum Essential Medium (EMEM) supplemented with 10% foetal bovine serum (FBS) and with 1% of penicillin-streptomycin solution at 37° C. and 10% CO2 in air. Ciprofloxacin was dissolved in dimethyl sulfoxide (DMSO) to prepare a concentrated stock solution which was further diluted in culture medium to obtain a final concentration of 20 μg/ml.
The cells were treated with ciprofloxacin alone or in combination with the different concentrations of each corticosteroid for 15 minutes. After the incubation period, the culture medium was removed, and the cells were harvested by trypsinization and centrifuged at 980 g for 5 min at 4° C. The cellular pellet was washed with saline solution to remove possible traces of residual extracellular compounds, centrifuged, and preserved at −80° C. for further analysis.
Intracellular ciprofloxacin was quantified by ultra-high-performance liquid chromatography coupled to tandem mass spectrometry (UHPLC-MS/MS). […] Transition monitored for ciprofloxacin was m/z 332.2→288.2, with cone voltage 35 V and collision energy 20 eV.

SMILES: O=C(O)c1cn(C2CC2)c2cc(N3CCNCC3)c(F)cc2c1=O [ciprofloxacin, Ciprofloxacin]
- fraction of topically instilled drug absorbed into the ocular tissue [1]: around 1%

SMILES: CC1(C)O[C@@H]2C[C@H]3[C@@H]4C[C@H](F)C5=CC(=O)C=C[C@]5(C)[C@@]4(F)[C@@H](O)C[C@]3(C)[C@]2(C(=O)CO)O1 [fluocinolone acetonide, Fluocinolone acetonide]
- dose dependence of the penetration enhancing effect on ciprofloxacin [2]: dose-dependent
